Source: patent US20260235610A1, “METHOD OF PREDICTING SUCCESS OF A CANCER THERAPY” (IMMUSMOL SAS, priority 2023, published 2026)

Experiments:
human PBMCs = test: anti-CD3 mediated PBMCs activation in QGP1-conditioned media, IFN-γ measurement by HTRF; format: cell-based; details: anti-CD3 0.5 μg/mL; for effect on C-Media induced decrease in anti-CD3 mediated PBMCs activation (IFN-γ): PBMCs of one healthy donor, 72 hours, conditioned media prepared with Telotristat 1 μM or PEA 300 μM
Description: Culture supernatant was then collected and applied on peripheral blood mononuclear cells (PBMCs) cultivated under anti-CD3-based activation for 3-days.
(§1) The QGP-1 cell line was cultured in RPMI-1640 medium, supplemented with 10% (v/v) FCS and penicillin-streptomycin in a humidified incubator at 5% CO2 and 37° C. In order to prepare the conditioned media, cells were cultured in 6-well plates for 48 hours in the presence and absence of Telotristat (1 μM), a TPH1 inhibitor, and in the presence and absence of Phenethylamine (PEA; 300 μM), a TPH1 inducer (Zhai et al., 2023). QGP1-conditioned media (C-Media) were used to culture human PBMCs (Peripheral Blood Mononuclear Cells) originating from one healthy donor for a 72-hour period under anti-CD3 activation (0.5 μg/mL). As control, fresh cell culture media (Non-Conditioned Media (NC-Media) was used.
At the end of PBMCs treatment period as described above, cell culture supernatants were collected and subjected to IFN-γ measurement by mean of HTRF (Homogeneous Time Resolved Technology, Perkin Elmer) which serves as a surrogate of immune cell activation (FIG. 12). HTRF is a standard technique well-known in the art and therefore perfectly within the routine of the skilled person.

TPH1 = molecular target: T1, TPH1 (Homo sapiens, UniProt P17752); test: Tryptophan metabolites (Trp, 5HTP, 5HT and ratios) in QGP1-conditioned media as surrogate of TPH1 activity; format: cell-based; details: QGP1 cells cultured 48 hours; for effect on C-Media decrease in Trp level and concomitant increase of 5HTP, 5HT, 5HTP/Trp and 5HT/Trp ratios: Telotristat 1 μM, PEA 300 μM, versus C-Media alone
T1 construct: QGP1 neuroendocrine tumor cell line characterized by a high TPH1 expression and activity; endogenous in cells; host or cells: QGP-1 neuroendocrine tumor cell line
T1 sequence (P17752 1-444): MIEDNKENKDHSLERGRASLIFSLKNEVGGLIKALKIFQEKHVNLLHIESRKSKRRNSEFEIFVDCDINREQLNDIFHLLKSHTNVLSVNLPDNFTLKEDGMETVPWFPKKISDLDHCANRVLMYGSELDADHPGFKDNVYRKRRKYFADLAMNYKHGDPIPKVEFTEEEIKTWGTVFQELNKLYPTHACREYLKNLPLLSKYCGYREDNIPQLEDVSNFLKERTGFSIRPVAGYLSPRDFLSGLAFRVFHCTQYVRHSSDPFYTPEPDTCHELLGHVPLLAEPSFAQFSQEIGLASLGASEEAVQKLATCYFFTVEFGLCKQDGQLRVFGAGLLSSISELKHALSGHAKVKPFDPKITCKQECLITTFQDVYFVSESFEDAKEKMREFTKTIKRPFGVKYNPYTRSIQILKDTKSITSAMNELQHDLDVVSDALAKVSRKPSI
Description: The impact of TPH1^High conditioned culture media (C-Media) on immune cell activation was evaluated. QGP1 neuroendocrine tumor cell line characterized by a high TPH1 expression and activity was cultured over a 48-hour period in the presence and absence of Telotristat (TPH1 inhibitor) or Phenethylamine (PEA) alone and in the presence of Telotristat.
The media characteristics were as follows: • i) NC-Media • ii) C-Media • iii) C-Media+Telotristat (TPH1 inhibitor) • iv) C-Media+Phenethylamine (PEA) • v) C-Media+Telotristat (TPH1 inhibitor)+Phenethylamine (PEA)
as §1
Each analytes-Tryptophan (Trp), 5-hydroxyTryptopan (5HTP) and Serotonin (5HT)-were measured individually and then used to calculate ratio, i.e. 5HTP/Trp and 5HT/Trp as representative surrogate of TPH1 activity.
Tryptophan was quantified using an immunoassay (#BA-E-2700, ImmuSmol, Bordeaux, FRANCE). Briefly, in order to remove proteins, 20 μL of sample were precipitated, vortexed and then centrifuged for 15 minutes (3,000 g, at 4° C.). Twenty five microliters of supernatant were then used for derivatization for a 2 hour period at room temperature. Once the derivatization was achieved, 25 μL of the solution was applied on a 96-microtiters prior addition of 50 μL of anti-Tryptophan antiserum. […]
5-HdroxyTryptophan was quantified using an immunoassay. […]
Serotonin was quantified using an immunoassay (#BA-E-5900R, ImmuSmol, Bordeaux, FRANCE). […]

**Q.** What does the source list for `Cc1ccn(-c2cc(Cl)ccc2[C@@H](Oc2cc(-c3ccc(C[C@H](N)C(=O)O)cc3)nc(N)n2)C(F)(F)F)n1` [Telotristat]?
**A.** effect on the more limited immune cell activation associated with PEA-induced TPH1 activation (IFN-γ) (human PBMCs; PBMCs 72 hours, conditioned media prepared with Telotristat 1 μM plus PEA 300 μM): alleviated; effect on C-Media induced decrease in anti-CD3 mediated PBMCs activation (IFN-γ) (human PBMCs): limited; effect on PEA-induced TPH1 activity (TPH1; Telotristat 1 μM plus PEA 300 μM): able to limit PEA-induced TPH1 activity; effect on C-Media decrease in Trp level and concomitant increase of 5HTP, 5HT, 5HTP/Trp and 5HT/Trp ratios (TPH1): largely limited

**Q.** Which results are given for `NCCc1ccccc1` [PEA, Phenethylamine]?
**A.** effect on C-Media induced decrease in anti-CD3 mediated PBMCs activation (IFN-γ) (human PBMCs): increased; effect on C-Media decrease in Trp level and concomitant increase of 5HTP, 5HT, 5HTP/Trp and 5HT/Trp ratios (TPH1): further increased
